Experimental data as given in EP4050002A1, “ANTI-PROLIFERATIVE AGENTS” (First Health Pharmaceuticals B.V., priority 2021, dated 2022).

Tests used:
K562 cell line = assay: Cytotoxicity, MTS method; type: cell-based; settings: Homo sapiens, K562, 72 hours of incubation
Procedure: (§1) The anti-tumor activity of the compounds of the present invention was evaluated as the effect on the proliferation and survival of tumor cells by counting the number of living cells in presence or absence of the compounds ("cell count method"), and as the effect on the viability and metabolic activity of the cells, by using particular substrates that are converted by cellular enzymes into coloured or luminescent products, proportionally with metabolic activity and state of the cell, such as the MTS tetrazolium compound ("MTS method") or luciferin ("ATP-based method") respectively.
Cells were seeded at 3 to 5 x 10^4 cells/well density depending on cell lines and maintained at 37°C in 5% CO2. After 24 hours cells were treated with ascending concentrations of the investigational compounds and the reference (5-fluoro-Uracyl) in a range from 0 to 100 µM. […] After 72 h of incubation with compounds, the cells were detached with trypsin and re-suspended in 1 ml of complete medium; the cell number was evaluated using a Z2 Coulter Counter ("cell count method") (Attallah and Johnson, A simple highly sensitive methods for the determination of cell viability using an electronic particle analyzer, Coulter counter J. Immunol. Methods. 1981, 41, 155; Leonardi et al., Activated kinase screening identifies the IKBKE oncogene as a positive regulator of autophagy. Autophagy, 2019, 15, 312). […]

Plasma stability = type: in vitro ADME, CD1 mice; settings: Mouse plasma
Procedure: Plasma previously separated from whole blood in EDTA-treated tubes and frozen; blood samples obtained from healthy volunteers, Sprague Dawley rats and CD1 mice, was thawed at room temperature and centrifuged at 1400x RCF 4°C, for 15 minutes. Approximately 90% of the clear supernatant fraction was transferred to a separate tube and was used for the assay.
Stocks (1 mM and 25 µM) of test compound were prepared in acetonitrile:water (50:50 v/v). Plasma samples were heat inactivated at 54°C. 3 µl of 25 µM test compound were added to 72 µl of heat inactivated plasma. A 50 µL aliquot of the mixture was taken and crashed with 200 µl of acetonitrile containing Telmisartan 100 ng/ml as internal standard and was further processed along with other time points: 10, 30 60 and 120 minutes.
Final working stock of 1 µM was prepared by diluting 12 µl of 25 µM stock in 288 µl of plasma. The obtained solution (300 µl) of plasma containing the test compound was incubated for […] at 37°C in shaker water bath with gentle shaking. 50 µl aliquot of sample at 10, 30, 60 and 120 min was precipitated immediately with 200 µl of acetonitrile containing internal standard and centrifuged at 4000x RCF, 4°C for 20 minutes. 150 µl of supernatant was diluted with 150 µl of water and analyzed by LC-MS/MS.
The % remaining of the test substance was calculated as: (Peak Area ratio at time (min))/(Peak Area Ratio at 0 min) ^∗ 100
The API400 MS and Agilent 1260 Infinity LC were used. Mobile Phase included 10mM Ammonium acetate with 0.1% formic acid in MilliQ water, and Methanol. The column was Phenomenex, KINETIC EVO C18 100A 5u 50^∗4.6 mm, 10 µl injection volume.

A549 = assay: Cytotoxicity, cell count method; type: cell-based; settings: Homo sapiens, A549, 72 hours of incubation
Procedure: as §1
(§2) Cells were seeded at 3 to 5 x 10^4 cells/well density depending on cell lines and maintained at 37°C in 5% CO2. After 24 hours cells were treated with ascending concentrations of the investigational compounds and the reference (5-fluoro-Uracyl) in a range from 0 to 100 µM. Compounds were dissolved in DMSO which final concentration in each well was 0.5% v:v. After 72 h of incubation with compounds, the cells were detached with trypsin and re-suspended in 1 ml of complete medium; the cell number was evaluated using a Z2 Coulter Counter ("cell count method") (Attallah and Johnson, A simple highly sensitive methods for the determination of cell viability using an electronic particle analyzer, Coulter counter J. Immunol. Methods. 1981, 41, 155; Leonardi et al., Activated kinase screening identifies the IKBKE oncogene as a positive regulator of autophagy. Autophagy, 2019, 15, 312). Alternatively, after the 72 hours of incubation with compounds, the MTS solution (CellTiter 96® AQueous One Solution Cell Proliferation Assay) is added to each well and absorbance at 490 nm wavelength is read after 2 hours of incubation ("MTS method"). Results in Tables 8-13, 17, 18 were obtained with the cell count method. Results in Tables 14-15 were obtained with the MTS method. Results in Table 16 were obtained with ATP-based method.

SK-LU1 = assay: Cytotoxicity, cell count method; type: cell-based; settings: Homo sapiens, SK-LU-1, SK-LU1, 72 hours of incubation
Procedure: as §1, §2

U87 = assay: Cytotoxicity, cell count method; type: cell-based; settings: Homo sapiens, U-87 MG, U87, 72 hours of incubation
Procedure: as §1, §2

HUH7 cell line = assay: Cytotoxicity, cell count method; type: cell-based; settings: Homo sapiens, Huh-7, HUH7, 72 hours of incubation
Procedure: as §1, §2

PANC-1 cell line = assay: Cytotoxicity, cell count method; type: cell-based; settings: Homo sapiens, PANC-1, 72 hours of incubation
Procedure: as §1, §2

CALU1 = assay: Cytotoxicity, cell count method; type: cell-based; settings: Homo sapiens, Calu-1, CALU1, 72 hours of incubation
Procedure: as §1, §2

DU145 cell line = assay: Cytotoxicity, cell count method; type: cell-based; settings: Homo sapiens, DU-145, DU145, 72 hours of incubation
Procedure: as §1, §2

A375 cell line = assay: Cytotoxicity, cell count method; type: cell-based; settings: Homo sapiens, A-375, A375, 72 hours of incubation
Procedure: as §1, §2

A549 Red-FLuc = assay: Cytotoxicity, cell count method; type: cell-based; settings: Homo sapiens, 72 hours of incubation
Procedure: as §1, §2

Which results are given for `CCCCc1cn(-c2ccc(-c3nnc(-c4ccccc4C(F)(F)F)o3)cc2)nn1` [Compound 5]?
IC50 (K562 cell line): 20.3 µM; % Remaining ± SD (Plasma stability; 0 minutes): 100.0 ± 1.8%; % Remaining ± SD (Plasma stability; 10 minutes): 117.2 ± 8.6%; % Remaining ± SD (Plasma stability; 30 minutes): 111.1 ± 0.3%; % Remaining ± SD (Plasma stability; 60 minutes): 108.2 ± 4.8%; % Remaining ± SD (Plasma stability; 120 minutes): 123.2 ± 26.5%; IC50 (A549): 0.35 µM; IC50 (SK-LU1): 0.42 µM; IC50 (U87): 3.9 µM; IC50 (HUH7 cell line): 3.28 µM; IC50 (PANC-1 cell line): 0.72 µM; IC50 (CALU1): 0.37 µM; IC50 (DU145 cell line): 3.7 µM; IC50 (A375 cell line): 0.94 µM; IC50 (A549 Red-FLuc): 6.04 µM
